Results published in BigSolDB 2.1.

O=C(O)CCCCCCCCCCCC(=O)O
solubility (mole fraction)
Settings	283.15 K	288.15 K	293.15 K	298.15 K	303.15 K	308.15 K	313.15 K	318.15 K	323.15 K
in acetic acid	–	0.00231	0.00309	0.00418	0.00656	0.00975	0.0138	0.0201	0.0253
in acetone	0.00192	0.00207	0.00302	0.00409	0.00633	0.00892	0.0128	0.0166	0.0234
in ethanol	0.00277	0.00286	0.00388	0.00441	0.00674	0.0115	0.0149	0.0207	0.0263
in ethyl acetate	0.00072	0.00083	0.00111	0.00149	0.00254	0.00361	0.00524	0.00722	0.011
in methanol	0.00291	0.00315	0.00388	0.00449	0.00541	0.00845	0.0106	0.0126	0.015
